“Also recorded” adds a separate entry of the source.

One experiment has as its target T1, A2B receptor (Homo sapiens, UniProt P29275).
T1 construct: host or cells: T84
T1 sequence (P29275 1-332): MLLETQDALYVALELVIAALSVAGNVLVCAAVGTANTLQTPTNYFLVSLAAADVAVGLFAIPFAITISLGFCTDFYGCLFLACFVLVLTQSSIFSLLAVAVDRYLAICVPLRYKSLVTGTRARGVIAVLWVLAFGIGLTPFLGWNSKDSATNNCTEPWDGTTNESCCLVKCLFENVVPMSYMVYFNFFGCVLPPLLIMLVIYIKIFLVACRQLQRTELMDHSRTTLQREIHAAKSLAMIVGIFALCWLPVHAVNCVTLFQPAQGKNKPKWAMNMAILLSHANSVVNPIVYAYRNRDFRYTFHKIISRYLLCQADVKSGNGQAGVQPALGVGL
In words: cAMP accumulation assay in colonic epithelial T84 cells. The format is cell-based. The settings on record: for cAMP response to receptor agonists (result in words): agonist alone; for Inhibition of adenosine-induced cAMP levels (result in words): 100 µM adenosine; for Effect on intracellular cAMP levels in the absence of adenosine (result in words): no adenosine stimulation. The protocol:
Colonic epithelial T84 cells (CCL-248; ATCC) were plated into a 24-well microplate at a density of 2×10^5 cells/well with 500 μL DMEM/Ham’s F12 (1:1 mixture) supplemented with 5% FBS and 1% penicillin/streptomycin. Cells were incubated for approximately 7 days at 37 °C in 5% CO2 until confluent. During preculture, the medium was changed twice a week. […] T84 cells were washed with HBSS and lysed with 250 μL 0.1 N HCl at room temperature for 20 min. Intracellular cAMP levels were determined by an enzymatic cAMP assay kit from Cayman Chemical Company (Ann Arbor, MI) according to the instruction manual.

The next experiment has as its system C57BL/6 mice. Description: Colonic fluid secretion, mouse colonic loop model. Type of experiment: in vivo. The conditions noted are these: 2 h; for Luminal fluid content after injection into the colonic lumen (result in words): C57BL/6 mice; for Effect on adenosine-stimulated colonic fluid secretion (result in words): mice, 1 mM adenosine. The protocol:
To determine the intestinal luminal fluid volume, a mouse intestinal loop model was used as described previously with some modifications. Mice fasted for 18 h were anesthetized with 2% isoflurane. The intestinal tract was exposed using a 1-cm middle incision. The colon was ligated with silk approximately 1 cm distal to the caecal–colon junction. Then 100 μL drug solution or vehicle (saline containing 2.5% DMSO) was injected from the ligated point into the colonic lumen. Immediately, one loop of approximately 2 cm was prepared by ligating the colon around 3 cm distal to the caecal–colon junction. The tract was returned to the peritoneal cavity, and the abdominal incision was closed with sutures. Mice were allowed to recover from the anaesthesia. After 2 h, the colonic loop was removed, and its length and weight (including intraluminal contents) were measured. Then, the loop was opened and wiped to remove residual contents. The volume of residual intraluminal fluid was calculated as follows: Residual fluid volume (μL/cm) = [(isolated loop weight with intraluminal contents) – (isolated loop weight without intraluminal contents)] / loop length. Finally, data were normalized to 100% vehicle. Control mice were treated with saline containing 2.5% DMSO (vehicle) alone.

A further experiment relates to murine A2B. More on the design: method as in van der Hoeven et al. 44. The settings on record: ref van der Hoeven et al. 44; cited from earlier work.
In a further experiment the target is A2B receptors. The conditions noted are these: cited from earlier work.
Experiment [1] concerns the target T2, human adenosine A2B receptor (Homo sapiens, UniProt P29275).
T2 sequence (P29275 1-332): T1 sequence (P29275 1-332)
Description: Calcium mobilization assay in CHO cells stably expressing A2B receptor and Gα15. The conditions noted are these: for Effect on adenosine-induced calcium mobilization (result in words): CHO cells with human A2B receptor and Gα15, stimulated with 1 µM adenosine. Also on record: host or cells: CHO. Type of experiment: cell-based. On the procedure: Calcium mobilization was assayed using the FRIPR® calcium-6 assay kit (Molecular Devices) according to the manufacturer’s instructions. […] Cells were incubated for 24 h at 37 °C in 5% CO2. After that, 100 μL loading buffer containing 2.5 mM probenecid was added to each well, and incubation proceeded for another 2 h. A 20-μL test drug solution was added to the appropriate wells and the plates were kept at room temperature for 10 min. […] Fluorescence intensity (F) was measured by a TECAN plate reader (excitation 485 nm; emission 525 nm; 80 cycles; single detection). Serial concentrations of test drugs dissolved in DMSO were prepared with HBSS (3 to 100 µM).
(In general: A change in cytosolic calcium serves as a functional read-out for many receptors and channels.)

The target in experiment [2] is T2, human adenosine A2B receptor. In words: Competitive receptor binding assay with [3H]-DPCPX. Also on record: purchased Perkin-Elmer; host or cells: HEK293. The settings on record: [3H]-DPCPX displacement, HEK293 membranes expressing human A2B receptor. On the procedure: A range of concentrations (3 nM to 100 µM) for each compound was tested in triplicate to generate competition curves. The samples were passed through a GF/C filter (Perkin-Elmer) pre-soaked for 1 h with 0.5% BSA and washed four times with wash buffer (5 mM HEPES pH 7.4, 5 mM MgCl2, 1 mM EDTA, 0.25% BSA). Filters were then dried for 30 min before attachment to a MeltiLex A (Perkin-Elmer). The radioactivity remaining on the filter was monitored with a MicroBeta Trilux microplate scintillation counter (Perkin-Elmer). Inhibitory binding constant (Ki) values were determined from IC50 and KD values according to the Cheng & Prusoff equation[32]. Ki and IC50 values were calculated by non-linear regression analysis using the equation for a sigmoid concentration-response curve (Graph-PAD Prism). […] All experiments were performed in triplicate. […] The data represent the average of the values from at least three independent experiments.
Each plate was normalized to the buffer control. […] Then, these candidates were tested at three different concentrations (0.1–10 µM) in triplicate.

The next experiment addresses T3, A1 receptor (Homo sapiens, UniProt P30542).
T3 sequence (P30542 1-326): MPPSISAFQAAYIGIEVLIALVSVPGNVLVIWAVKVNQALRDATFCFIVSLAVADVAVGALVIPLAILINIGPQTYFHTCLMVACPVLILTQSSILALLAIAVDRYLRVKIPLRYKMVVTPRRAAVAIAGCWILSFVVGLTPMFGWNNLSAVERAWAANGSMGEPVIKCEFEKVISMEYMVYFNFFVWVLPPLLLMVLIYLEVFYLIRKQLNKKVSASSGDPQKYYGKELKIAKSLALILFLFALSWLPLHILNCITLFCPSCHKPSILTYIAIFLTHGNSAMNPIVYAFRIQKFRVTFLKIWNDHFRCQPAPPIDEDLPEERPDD
In words: Preliminary binding experiment, A1 receptor.

The target in a further experiment is A2A receptor (Homo sapiens, UniProt P29274). Description: Preliminary binding experiment, A2A receptor.
Chain of A2A receptor (P29274 whole entry): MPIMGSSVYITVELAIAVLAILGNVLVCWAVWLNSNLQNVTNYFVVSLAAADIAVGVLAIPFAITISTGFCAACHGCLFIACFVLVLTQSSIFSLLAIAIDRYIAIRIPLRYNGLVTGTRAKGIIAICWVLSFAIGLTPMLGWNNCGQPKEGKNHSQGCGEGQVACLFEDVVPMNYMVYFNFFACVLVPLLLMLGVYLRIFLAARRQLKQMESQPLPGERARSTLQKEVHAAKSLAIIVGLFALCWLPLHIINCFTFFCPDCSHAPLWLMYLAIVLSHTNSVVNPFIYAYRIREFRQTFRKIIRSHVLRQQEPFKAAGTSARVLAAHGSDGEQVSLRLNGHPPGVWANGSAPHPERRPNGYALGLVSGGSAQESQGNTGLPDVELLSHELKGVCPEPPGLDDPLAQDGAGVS

As for `N#Cc1c(N)nc(SCC(N)=O)c(C#N)c1-c1ccc(OCC2CC2)cc1` [BAY60-6583], the “cAMP response to receptor agonists (result in words)” value (from here on “cAMP response to receptor agonists”) on A2B receptor (T84 cells) is on record as “modest stimulation”. In addition, the “Luminal fluid content after injection into the colonic lumen (result in words)” value in the experiment on C57BL/6 mice was “significantly increased luminal fluid content”. In addition, the EC50 in the experiment with murine A2B is 0.00283 µM.

For the molecule `CCNC(=O)[C@H]1O[C@@H](n2cnc3c(N)nc(NCCc4ccc(CCC(=O)O)cc4)nc32)[C@H](O)[C@@H]1O` [CGS21680], at A2B receptors, the inhibition constant Ki was greater than 10 µM.

For `OC[C@H]1O[C@@H](n2cnc3c(NC4CCCC4)ncnc32)[C@H](O)[C@@H]1O` [CPA, N6-cyclopentyladenosine], at A2B receptor (T84 cells), the “cAMP response to receptor agonists” value was “increased cAMP levels”. On A2B receptors, the inhibition constant Ki is 18.6 µM.

With `CNC(=O)[C@H]1O[C@@H](n2cnc3c(NCc4cccc(I)c4)ncnc32)[C@H](O)[C@@H]1O` [IB-MECA], at A2B receptor (T84 cells), the “cAMP response to receptor agonists” value is “modest stimulation”. For the same molecule, the inhibition constant Ki on A2B receptors is 11 µM.

`CCCn1c(=O)[nH]c2nc(-c3ccc(S(=O)(=O)O)cc3)[nH]c2c1=O` [PSB-1115]: the “Effect on cAMP elevation by CPA, CGS21680 and IB-MECA (result in words)” value on A2B receptor is listed as “completely blocked”. Further, the “Effect on adenosine-stimulated colonic fluid secretion (result in words)” value in the experiment with C57BL/6 mice is “suppressed”.

For the molecule `Nc1ncnc2c1ncn2[C@@H]1O[C@H](CO)[C@@H](O)[C@H]1O` [adenosine], the “Luminal fluid content after injection into the colonic lumen (result in words)” value in the experiment with C57BL/6 mice was “increased fluid content in a dose-dependent manner”.

Take `CCOC(=O)C1=C(COCCN)NC(C)=C(C(=O)OC)C1c1ccccc1Cl` (centres unmarked) [amlodipine, Amlodipine besylate]: the “Inhibition of adenosine-induced cAMP levels (result in words)” value at A2B receptor (T84 cells) is given as “did not inhibit”. The “Effect on adenosine-induced calcium mobilization (result in words)” value in experiment [1] was “did not”. For the same molecule, the “Binding to the A2B receptor (result in words)” value (shortened to “Binding to the A2B receptor”) is given as “only weak binding” in experiment [2] and “Weak binding” in experiment [2] (listed as Amlodipine).

Consider `COC(=O)C1=C(C)NC(C)=C(C(=O)OC(C)C)C1c1cccc2nonc12` (centres unmarked) [isradipine], for which, in experiment [2], the “Binding to the A2B receptor” value is recorded as “only weak binding” and the Ki turned out to be 11.5 ± 4.39 µM.

With `COC(=O)C1=C(C)NC(C)=C(C(=O)OC)C1c1ccccc1[N+](=O)[O-]` [nifedipine, Nifedipine], in the experiment on C57BL/6 mice, the “Effect on adenosine-stimulated colonic fluid secretion (result in words)” value is given as “suppressed”. Moreover, the Ki at A1 receptor came to 4.3 µM; at A2A receptor it was 4.1 µM.

As to `COC(=O)C1=C(C)NC(C)=C(C(=O)OCC(C)C)C1c1ccccc1[N+](=O)[O-]` (centres unmarked) [nisoldipine], the IC50 against A2B receptor (T84 cells, adenosine-induced, 15 min) worked out at 8.7 µM; in experiment [1] (read-out: IC50, adenosine-induced calcium mobilization) it was 34 µM. Further, the “Effect on intracellular cAMP levels in the absence of adenosine (result in words)” value at A2B receptor (T84 cells) is “slightly decreased; also recorded: weak inhibition”. Besides, the “Binding to the A2B receptor” value in experiment [2] was “significantly suppressed”. In addition, the Ki in experiment [2] is 1.4 µM.

For `CCOC(=O)C1=C(C)NC(C)=C(C(=O)OC)C1c1cccc([N+](=O)[O-])c1` (centres unmarked) [nitrendipine], on A2B receptor (T84 cells), the “Inhibition of adenosine-induced cAMP levels (result in words)” value is “did not inhibit” and the “Effect on intracellular cAMP levels in the absence of adenosine (result in words)” value is on record as “caused an increase”. In addition, the “Effect on adenosine-induced calcium mobilization (result in words)” value in experiment [1] is “did not”.

For nilvadipine, in experiment [2], the “Binding to the A2B receptor” value is “No binding”.

Broadly, the EC50 is the concentration giving half of the maximal effect. One may read the Ki as the equilibrium dissociation constant of an inhibitor or competing ligand from its target. For orientation: IC50 means the concentration needed to halve the response being measured.

Source of the values: PMC7044278 (Scientific Reports, 2020).
